Experimental data published in patent US20240174690A1, “ANNULATED 2-AMINO-3-CYANO THIOPHENES AND DERIVATIVES FOR THE TREATMENT OF CANCER” (BOEHRINGER INGELHEIM INTERNATIONAL GMBH, priority 2021, published 2024).
Read-outs that look alike come from different tables or passages of the source.

Legend:
[1] = molecular target: KRAS (G12C)::SOS1 (Homo sapiens (Human), UniProt P01116, C118S/C51S/C80L/G12C); assay: KRAS::SOS1 AlphaScreen binding assay, KRAS G12C
How it was run: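 AlphaScreen measurement of compound disruption of biotinylated, GDP-loaded KRAS 1-169 (10 nM; G12C 7.5 nM) binding to GST-SOS1 564-1049 (5 nM with G12D/G12C, 10 nM otherwise), with 10 μM GDP in PBS/0.1% BSA/0.05% Tween 20. Timing was 30 min compound preincubation, then 60 min with beads at room temperature; top concentration 100 μM, 4-parameter IC50.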

[2] = test system: NCI-H358 cells; assay: NCI-H358 CTG proliferation assay (120 h) (NSCLC, G12C); format: cell-based, human; settings: Homo sapiens
How it was run: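 NCI-H358 cells (KRAS G12C) were seeded at 2000/well (assay 1) or 200/well (assay 2) in RPMI-1640 + 10% FCS and dosed with a logarithmic series, DMSO-normalized. After 120 h, viability was read by CellTiter-Glo luminescence as percent of DMSO control, with a T0 read at dosing. IC50 came from a four-parameter fit.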

[3] = test system: LOVO cells; assay: LOVO CTG proliferation assay (120 h) (CRC, G13D); format: cell-based; settings: Homo sapiens, CTG 120 h
How it was run: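 LOVO cells, 1000 per well in DMEM + 10% FCS, were plated overnight and then dosed with compound from DMSO stock. After 120 h at 37 °C, viability was read by CellTiter-Glo luminescence as a percentage of DMSO controls. IC50 was derived by four-parameter non-linear regression.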

[4] = assay 2, CTG, read-out: H358 (assay 2) IC50
[5] = assay 1, CTG, read-out: H358 (assay 1) IC50

KRAS (G12C)::SOS1, sequence (P01116 other isoform, or with tags, fused parts or gaps G12C/C51S/C80L/C118S): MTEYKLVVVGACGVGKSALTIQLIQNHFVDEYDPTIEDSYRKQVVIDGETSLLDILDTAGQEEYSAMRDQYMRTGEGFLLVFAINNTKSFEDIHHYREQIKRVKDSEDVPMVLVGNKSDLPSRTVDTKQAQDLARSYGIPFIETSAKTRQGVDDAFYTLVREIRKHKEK

SMILES	IC50 [1]	IC50 [2, 4]	IC50 [3]	IC50 [2, 5]
C[C@H](Oc1cc(N2CCNC[C@]23CCOC3)nc(-c2onc3c2CCC[C@@]32CCCc3sc(N)c(C#N)c32)n1)[C@@H]1CCCN1C [I-12]	2 nM	3120 nM	824 nM	–
C[C@H](Oc1cc(N2CCNC[C@@]23CCOC3)nc(-c2onc3c2CCC[C@@]32CCCc3sc(N)c(C#N)c32)n1)[C@@H]1CCCN1C [I-13]	7 nM	4280 nM	1510 nM	–
C[C@H](Oc1cc(-c2cn(C)nn2)nc(-c2onc3c2CCC[C@@]32CCCc3sc(N)c(C#N)c32)n1)[C@@H]1CCCN1C [I-16]	2 nM	204 nM	–	–
C[C@H](Oc1cc(-n2cncn2)nc(-c2onc3c2CCC[C@@]32CCCc3sc(N)c(C#N)c32)n1)[C@@H]1CCCN1C [I-18]	2 nM	179 nM	260 nM	–
C[C@H](Oc1cc(N2Cc3cnn(C)c3C2)nc(-c2onc3c2CCC[C@@]32CCCc3sc(N)c(C#N)c32)n1)[C@@H]1CCCN1C [I-19]	2 nM	2160 nM	479 nM	–
C[C@H](Oc1cc(-n2cc(-c3cncs3)nn2)nc(-c2noc3c2CCC[C@@]32CCCc3sc(N)c(C#N)c32)n1)[C@@H]1CCCN1C [II-125]	2 nM	255 nM	97 nM	–
C[C@H](Oc1cc(-n2cnc(C(=O)N(C)C)c2)nc(-c2noc3c2CCC[C@@]32CCCc3sc(N)c(C#N)c32)n1)[C@@H]1CCCN1C [II-126]	2 nM	1680 nM	251 nM	–
C[C@H](Oc1cc(-c2ccn([C@H]3CCOC3)n2)nc(-c2noc3c2CCC[C@@]32CCCc3sc(N)c(C#N)c32)n1)[C@@H]1CCCN1C [II-127]	2 nM	400 nM	131 nM	–
C[C@H](Oc1cc(-c2ccn(Cc3ncco3)n2)nc(-c2noc3c2CCC[C@@]32CCCc3sc(N)c(C#N)c32)n1)[C@@H]1CCCN1C [II-128]	2 nM	417 nM	91 nM	–
C[C@H](Oc1cc(-c2ccn(C[C@H]3CCOC3)n2)nc(-c2noc3c2CCC[C@@]32CCCc3sc(N)c(C#N)c32)n1)[C@@H]1CCCN1C [II-129]	2 nM	295 nM	69 nM	–
C[C@H](Oc1cc(-n2ccc(-c3cnccn3)n2)nc(-c2noc3c2CCC[C@@]32CCCc3sc(N)c(C#N)c32)n1)[C@@H]1CCCN1C [II-130]	2 nM	28 nM	190 nM	25 nM
C[C@H](Oc1cc(-n2nccc2-c2ccncc2)nc(-c2noc3c2CCC[C@@]32CCCc3sc(N)c(C#N)c32)n1)[C@@H]1CCCN1C [II-131]	–	277 nM	225 nM	–
C[C@H](Oc1cc(-n2cc(C(=O)N(C)C)nn2)nc(-c2noc3c2CCC[C@@]32CCCc3sc(N)c(C#N)c32)n1)[C@@H]1CCCN1C [II-132]	2 nM	324 nM	120 nM	–
C[C@H](Oc1cc(-c2cccc(C(N)=O)c2)nc(-c2noc3c2CCC[C@@]32CCCc3sc(N)c(C#N)c32)n1)[C@@H]1CCCN1C [II-133]	2 nM	9 nM	459 nM	74 nM
C[C@H]1CNCCCN1c1cc(-c2ccn(C)n2)nc(-c2noc3c2CCC[C@@]32CCCc3sc(N)c(C#N)c32)n1 [II-140]	5 nM	702 nM	5490 nM	–
C[C@H]1CNCCCN1c1cc(-n2ccnc2)nc(-c2noc3c2CCC[C@@]32CCCc3sc(N)c(C#N)c32)n1 [II-142]	5 nM	10800 nM	2640 nM	–
C[C@H](Oc1cc(N2CCOC2=O)nc(-c2noc3c2CCC[C@@]32CCCc3sc(N)c(C#N)c32)n1)[C@@H]1CCCN1C [II-143]	2 nM	–	96 nM	25 nM
C[C@H](Oc1cc(N2CCNC3(COC3)C2)nc(-c2noc3c2CCC[C@@]32CCCc3sc(N)c(C#N)c32)n1)[C@@H]1C[C@@H](F)CN1C [II-150]	2 nM	115 nM	81 nM	–
CO[C@@H]1C[C@@H]([C@H](C)Oc2cc(N3CCN(C)C4(CC4)C3)nc(-c3noc4c3CCC[C@@]43CCCc4sc(N)c(C#N)c43)n2)N(C)C1 [II-152]	7 nM	926 nM	650 nM	–
CO[C@@H]1C[C@@H]([C@H](C)Oc2cc(N3CCN(C)C4(COC4)C3)nc(-c3noc4c3CCC[C@@]43CCCc4sc(N)c(C#N)c43)n2)N(C)C1 [II-153]	3 nM	2850 nM	283 nM	–
C[C@H](Oc1cc(-n2cc3c(n2)CNC3)nc(-c2noc3c2CCC[C@@]32CCCc3sc(N)c(C#N)c32)n1)[C@@H]1C[C@@H](F)CN1C [II-154]	2 nM	374 nM	904 nM	–

SMILES	IC50 [1]	IC50 [2, 4]	IC50 [3]	IC50 [2, 5]
C[C@H](Oc1nc(-c2noc3c2CCC[C@@]32CCCc3sc(N)c(C#N)c32)nc(N2CCNC3(CC3)C2)c1F)[C@@H]1C[C@@H](F)CN1C [II-155]	2 nM	77 nM	107 nM	–
C[C@H](Oc1nc(-c2noc3c2CCC[C@@]32CCCc3sc(N)c(C#N)c32)nc(N2CCNC3(CC3)C2)c1Cl)[C@@H]1C[C@@H](F)CN1C [II-156]	2 nM	230 nM	226 nM	–
C[C@H](Oc1nc(-c2noc3c2CCC[C@@]32CCCc3sc(N)c(C#N)c32)nc(N2C[C@H](C)NC3(CC3)C2)c1F)[C@@H]1C[C@@H](F)CN1C [II-157]	2 nM	151 nM	136 nM	–
C[C@@H]1CN(c2nc(-c3noc4c3CCC[C@@]43CCCc4sc(N)c(C#N)c43)nc(O[C@@H](C)[C@@H]3C[C@@H](F)CN3C)c2F)CC2(CC2)N1 [II-158]	2 nM	58 nM	84 nM	–
COc1c(O[C@@H](C)[C@@H]2CCCN2C)nc(-c2noc3c2CCC[C@@]32CCCc3sc(N)c(C#N)c32)nc1-n1ccc(C(N)=O)n1 [II-159]	2 nM	31 nM	356 nM	–
C[C@H](Oc1cc(C2=CCNCC2)nc(-c2noc3c2CCC[C@@]32CCCc3sc(N)c(C#N)c32)n1)[C@@H]1CCCN1C [II-164]	2 nM	40 nM	246 nM	–
C[C@H](Oc1cc(N2CCNC3(CC3)C2)nc(-c2noc3c2CCC[C@@]32CCCc3sc(N)c(C#N)c32)n1)[C@@H]1C[C@@H](F)CN1C [II-165]	3 nM	166 nM	303 nM	–
CC(C)N1CCCN(c2cc(-n3ccnc3)nc(-c3noc4c3CCC[C@@]43CCCc4sc(N)c(C#N)c43)n2)[C@@H](C)C1 [II-169]	3 nM	595 nM	553 nM	–
CC(C)N1CCCN(c2cc(-c3ccn(C)n3)nc(-c3noc4c3CCC[C@@]43CCCc4sc(N)c(C#N)c43)n2)[C@@H](C)C1 [II-170]	3 nM	623 nM	270 nM	–
C[C@H](Oc1cc(-n2cc3c(n2)CN(C)C3)nc(-c2noc3c2CCC[C@@]32CCCc3sc(N)c(C#N)c32)n1)[C@@H]1CCCN1C [II-174]	2 nM	112 nM	139 nM	–
C[C@H](Oc1nc(-c2noc3c2CCC[C@@]32CCCc3sc(N)c(C#N)c32)nc(N2CCN(C)C3(CC3)C2)c1Cl)[C@@H]1C[C@@H](F)CN1C [II-176]	15 nM	1640 nM	2680 nM	–
CC(=O)N1CCN(c2cc(O[C@@H](C)[C@@H]3CCCN3C)nc(-c3noc4c3CCC[C@@]43CCCc4sc(N)c(C#N)c43)n2)CC12CC2 [II-178]	2 nM	129 nM	624 nM	–
CC(C)NC(=O)Cc1ccn(-c2cc(O[C@@H](C)[C@@H]3CCCN3C)nc(-c3noc4c3CCC[C@@]43CCCc4sc(N)c(C#N)c43)n2)n1 [II-182]	1 nM	3 nM	38 nM	–
CO[C@H]1CCN(C)[C@@H]1[C@H](C)Oc1cc(N2CCNC3(CC3)C2)nc(-c2noc3c2CCC[C@@]32CCCc3sc(N)c(C#N)c32)n1 [II-184]	2 nM	95 nM	325 nM	–
CCN1CCN(c2cc(O[C@@H](C)[C@@H]3C[C@@H](F)CN3C)nc(-c3noc4c3CCC[C@@]43CCCc4sc(N)c(C#N)c43)n2)CC12CC2 [II-185]	21 nM	510 nM	714 nM	–
CO[C@H]1CCN(C)[C@@H]1[C@H](C)Oc1cc(N2CCN(C)C3(CC3)C2)nc(-c2noc3c2CCC[C@@]32CCCc3sc(N)c(C#N)c32)n1 [II-186]	3 nM	273 nM	357 nM	–
CO[C@@H]1C[C@@H]([C@H](C)Oc2cc(N3CCNC4(CC4)C3)nc(-c3noc4c3CCC[C@@]43CCCc4sc(N)c(C#N)c43)n2)N(C)C1 [II-187]	2 nM	135 nM	429 nM	–
C[C@H](Oc1cc(-n2ccc(C3(O)COC3)n2)nc(-c2noc3c2CCC[C@@]32CCCc3sc(N)c(C#N)c32)n1)[C@@H]1CCCN1C [II-189]	2 nM	19 nM	39 nM	–
C[C@H](NC(=O)c1ccn(-c2cc(O[C@@H](C)[C@@H]3CCCN3C)nc(-c3noc4c3CCC[C@@]43CCCc4sc(N)c(C#N)c43)n2)n1)c1ccccn1 [II-191]	2 nM	3 nM	13 nM	–
C[C@H](Oc1cc(-n2ccc(C(=O)N[C@@H]3CCOC3)n2)nc(-c2noc3c2CCC[C@@]32CCCc3sc(N)c(C#N)c32)n1)[C@@H]1CCCN1C [II-192]	1 nM	2 nM	32 nM	–
